Where two headings read alike, the source gives them in different places.
What was measured:
[1] = biological target: T1, DYRK3 (Homo sapiens, UniProt O43781); test: Protein kinase assay; type: biochemical
T1 sequence (O43781 1-588): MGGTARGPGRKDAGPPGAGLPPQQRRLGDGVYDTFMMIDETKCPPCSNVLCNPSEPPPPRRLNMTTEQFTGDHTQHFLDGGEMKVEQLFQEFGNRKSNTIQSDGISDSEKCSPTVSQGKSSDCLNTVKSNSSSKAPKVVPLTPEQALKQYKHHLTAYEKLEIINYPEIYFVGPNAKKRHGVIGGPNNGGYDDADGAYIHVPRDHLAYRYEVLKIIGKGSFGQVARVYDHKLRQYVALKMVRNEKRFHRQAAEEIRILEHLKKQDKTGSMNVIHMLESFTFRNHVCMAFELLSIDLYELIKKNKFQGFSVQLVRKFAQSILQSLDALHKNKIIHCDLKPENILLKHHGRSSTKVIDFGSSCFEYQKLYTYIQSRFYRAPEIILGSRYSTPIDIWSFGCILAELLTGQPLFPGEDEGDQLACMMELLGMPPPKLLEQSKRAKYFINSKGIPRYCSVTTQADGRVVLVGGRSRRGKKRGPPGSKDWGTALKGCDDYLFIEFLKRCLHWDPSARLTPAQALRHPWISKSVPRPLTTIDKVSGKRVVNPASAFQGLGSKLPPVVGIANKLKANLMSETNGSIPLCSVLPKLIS

[2] = biological target: LmCK1 (Leishmania major, UniProt Q9NHE1); test: Protein kinase assay; type: biochemical
LmCK1, sequence (Q9NHE1 entry or part of it): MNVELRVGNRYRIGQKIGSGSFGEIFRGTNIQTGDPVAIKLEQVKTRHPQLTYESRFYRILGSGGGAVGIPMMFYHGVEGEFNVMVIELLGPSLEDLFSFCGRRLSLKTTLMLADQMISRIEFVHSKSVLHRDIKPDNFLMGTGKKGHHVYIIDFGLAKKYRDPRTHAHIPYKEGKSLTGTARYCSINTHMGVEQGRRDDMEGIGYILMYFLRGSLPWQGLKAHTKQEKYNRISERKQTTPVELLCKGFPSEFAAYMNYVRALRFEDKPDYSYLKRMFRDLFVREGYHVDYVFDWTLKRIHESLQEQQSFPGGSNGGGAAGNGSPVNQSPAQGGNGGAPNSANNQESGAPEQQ
Protocol: (§1) CK1δ/ε (porcine brain, native) and LmCK1 (leishmania major, recombinant, expressed in E. coli as HIS fusion proteins) was assayed as described for CDK1 but in buffer C and using 25 μM CKS peptide ([…]pSAYSITA), a CK1-specific substrate.

[3] = biological target: T2, DYRK2 (Homo sapiens, UniProt Q92630); test: Protein kinase assay; type: biochemical
T2 sequence (Q92630 1-601): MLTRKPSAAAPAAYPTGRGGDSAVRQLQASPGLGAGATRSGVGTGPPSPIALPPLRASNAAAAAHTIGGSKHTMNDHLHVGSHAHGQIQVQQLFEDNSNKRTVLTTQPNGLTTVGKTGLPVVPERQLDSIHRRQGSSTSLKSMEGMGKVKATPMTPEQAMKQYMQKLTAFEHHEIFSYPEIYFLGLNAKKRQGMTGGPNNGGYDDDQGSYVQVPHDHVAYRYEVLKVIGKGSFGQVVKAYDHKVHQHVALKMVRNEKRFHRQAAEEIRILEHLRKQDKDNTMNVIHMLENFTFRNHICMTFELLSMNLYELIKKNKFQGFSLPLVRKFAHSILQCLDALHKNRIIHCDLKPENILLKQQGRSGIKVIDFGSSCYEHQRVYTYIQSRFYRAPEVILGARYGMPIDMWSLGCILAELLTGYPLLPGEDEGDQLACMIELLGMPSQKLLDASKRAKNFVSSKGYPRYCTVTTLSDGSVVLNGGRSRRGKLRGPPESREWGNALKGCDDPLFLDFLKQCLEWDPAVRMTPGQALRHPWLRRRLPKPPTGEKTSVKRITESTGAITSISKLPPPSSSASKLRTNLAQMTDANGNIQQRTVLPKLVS

[4] = biological target: CLK2 (Mus musculus, UniProt O35491); test: Protein kinase assay; details: IC50 CLK2, 15 μmol/L ATP
CLK2, sequence (O35491 whole entry): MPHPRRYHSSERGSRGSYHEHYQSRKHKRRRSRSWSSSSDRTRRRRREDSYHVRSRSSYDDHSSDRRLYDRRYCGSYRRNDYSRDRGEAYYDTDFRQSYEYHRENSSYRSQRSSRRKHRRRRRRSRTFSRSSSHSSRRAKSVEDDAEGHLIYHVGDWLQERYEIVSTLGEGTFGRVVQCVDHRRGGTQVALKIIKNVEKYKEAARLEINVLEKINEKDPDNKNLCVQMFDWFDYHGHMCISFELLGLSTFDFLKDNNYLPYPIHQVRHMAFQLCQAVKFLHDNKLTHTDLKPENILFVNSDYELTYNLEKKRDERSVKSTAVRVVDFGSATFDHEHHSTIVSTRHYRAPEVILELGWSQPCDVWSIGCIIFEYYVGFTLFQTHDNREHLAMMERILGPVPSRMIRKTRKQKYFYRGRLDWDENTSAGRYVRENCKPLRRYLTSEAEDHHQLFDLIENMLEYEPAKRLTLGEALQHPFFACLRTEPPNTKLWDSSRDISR

[5] = biological target: CK1δ/ε; test: Protein kinase assay; type: biochemical, porcine; details: 15 μmol/L ATP
Protocol: as §1

[6] = biological target: CDK1/cyclin B; test: Protein kinase assay; type: biochemical, starfish; details: 15 μmol/L ATP
[7] = tested on: 27 purified kinases (14 mammalian and 13 unicellular parasites); test: Battery of 27 purified kinases
[8] = biological target: T3, CDK4-cyclinD3 (Homo sapiens, UniProt P11802); test: KinomeScan; type: binding; details: 1 μM
T3 construct: purchased DiscoverX (KINOMEscan)
Protocol: (§2) Assays were performed essentially as described previously. For most assays, kinase-tagged T7 phage strains were grown in parallel in 24-well blocks in an E. coli host derived from the BL21 strain. E. coli were grown to log-phase and infected with T7 phage from a frozen stock (multiplicity of infection ~0.1) and incubated with shaking at 32 °C until lysis (~90 min). The lysates were centrifuged (6000× g) and filtered (0.2 μm) to remove cell debris. The remaining kinases were produced in HEK-293 cells and subsequently tagged with DNA for qPCR detection. […] The liganded beads were blocked with excess biotin and washed with blocking buffer (SeaBlock (Pierce, ThermoFisher Scientific, Illkirch, France), 1% BSA, 0.05% Tween 20, 1 mM DTT) to remove unbound ligand and to reduce non-specific phage binding. […] An 11-point threefold serial dilution of each test compound was prepared in 100% DMSO at 100× final test concentration which and subsequently diluted to 1× in the assay. All reactions were performed in polystyrene 96-well plates in a final volume of 0.135 mL. […] The kinase concentration in the eluates was measured by qPCR.

[9] = biological target: T4, STK33 (Homo sapiens, UniProt Q9BYT3); test: KinomeScan; type: binding; details: 1 μM
T4 construct: purchased DiscoverX (KINOMEscan)
T4 sequence (Q9BYT3 whole entry): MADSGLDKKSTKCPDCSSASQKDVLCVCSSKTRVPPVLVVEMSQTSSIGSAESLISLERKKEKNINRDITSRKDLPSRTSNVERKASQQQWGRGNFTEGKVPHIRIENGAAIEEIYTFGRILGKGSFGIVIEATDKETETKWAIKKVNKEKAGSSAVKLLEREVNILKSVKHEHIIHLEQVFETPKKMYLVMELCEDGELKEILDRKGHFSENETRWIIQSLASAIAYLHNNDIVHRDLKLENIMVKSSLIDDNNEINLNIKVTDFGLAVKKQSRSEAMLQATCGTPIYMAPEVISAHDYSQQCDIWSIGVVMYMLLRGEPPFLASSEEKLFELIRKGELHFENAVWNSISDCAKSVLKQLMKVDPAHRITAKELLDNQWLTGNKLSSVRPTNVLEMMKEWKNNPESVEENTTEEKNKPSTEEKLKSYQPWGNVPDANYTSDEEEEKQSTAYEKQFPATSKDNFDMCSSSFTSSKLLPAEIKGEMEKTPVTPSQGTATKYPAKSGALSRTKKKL
Protocol: as §2

[10] = biological target: T5, NDR1 (Homo sapiens, UniProt Q15208); test: KinomeScan; type: binding; details: 1 μM
T5 construct: purchased DiscoverX (KINOMEscan)
T5 sequence (Q15208 whole entry): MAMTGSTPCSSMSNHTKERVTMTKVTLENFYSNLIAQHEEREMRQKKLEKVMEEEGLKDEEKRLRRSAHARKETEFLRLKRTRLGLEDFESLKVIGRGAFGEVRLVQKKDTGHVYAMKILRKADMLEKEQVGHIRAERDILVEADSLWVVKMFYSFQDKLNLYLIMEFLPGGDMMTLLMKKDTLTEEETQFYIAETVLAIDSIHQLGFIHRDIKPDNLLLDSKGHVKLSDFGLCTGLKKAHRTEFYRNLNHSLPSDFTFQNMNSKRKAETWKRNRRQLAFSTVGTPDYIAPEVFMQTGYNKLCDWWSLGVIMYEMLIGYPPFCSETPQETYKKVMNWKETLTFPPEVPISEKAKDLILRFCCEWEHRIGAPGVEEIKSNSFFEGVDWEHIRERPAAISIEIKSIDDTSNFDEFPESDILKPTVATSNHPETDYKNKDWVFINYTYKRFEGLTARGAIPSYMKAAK
Protocol: as §2

[11] = biological target: T6, CASK (Homo sapiens, UniProt O14936); test: KinomeScan; type: binding; details: 1 μM
T6 construct: purchased DiscoverX (KINOMEscan)
Protocol: as §2

[12] = biological target: T7, MARK4 (Homo sapiens, UniProt Q96L34); test: KinomeScan; type: binding; details: 1 μM
T7 construct: purchased DiscoverX (KINOMEscan)
Protocol: as §2

[13] = biological target: T8, NEK9 (Homo sapiens, UniProt Q8TD19); test: KinomeScan; type: binding; details: 1 μM
T8 construct: purchased DiscoverX (KINOMEscan)
T8 sequence (Q8TD19 whole entry): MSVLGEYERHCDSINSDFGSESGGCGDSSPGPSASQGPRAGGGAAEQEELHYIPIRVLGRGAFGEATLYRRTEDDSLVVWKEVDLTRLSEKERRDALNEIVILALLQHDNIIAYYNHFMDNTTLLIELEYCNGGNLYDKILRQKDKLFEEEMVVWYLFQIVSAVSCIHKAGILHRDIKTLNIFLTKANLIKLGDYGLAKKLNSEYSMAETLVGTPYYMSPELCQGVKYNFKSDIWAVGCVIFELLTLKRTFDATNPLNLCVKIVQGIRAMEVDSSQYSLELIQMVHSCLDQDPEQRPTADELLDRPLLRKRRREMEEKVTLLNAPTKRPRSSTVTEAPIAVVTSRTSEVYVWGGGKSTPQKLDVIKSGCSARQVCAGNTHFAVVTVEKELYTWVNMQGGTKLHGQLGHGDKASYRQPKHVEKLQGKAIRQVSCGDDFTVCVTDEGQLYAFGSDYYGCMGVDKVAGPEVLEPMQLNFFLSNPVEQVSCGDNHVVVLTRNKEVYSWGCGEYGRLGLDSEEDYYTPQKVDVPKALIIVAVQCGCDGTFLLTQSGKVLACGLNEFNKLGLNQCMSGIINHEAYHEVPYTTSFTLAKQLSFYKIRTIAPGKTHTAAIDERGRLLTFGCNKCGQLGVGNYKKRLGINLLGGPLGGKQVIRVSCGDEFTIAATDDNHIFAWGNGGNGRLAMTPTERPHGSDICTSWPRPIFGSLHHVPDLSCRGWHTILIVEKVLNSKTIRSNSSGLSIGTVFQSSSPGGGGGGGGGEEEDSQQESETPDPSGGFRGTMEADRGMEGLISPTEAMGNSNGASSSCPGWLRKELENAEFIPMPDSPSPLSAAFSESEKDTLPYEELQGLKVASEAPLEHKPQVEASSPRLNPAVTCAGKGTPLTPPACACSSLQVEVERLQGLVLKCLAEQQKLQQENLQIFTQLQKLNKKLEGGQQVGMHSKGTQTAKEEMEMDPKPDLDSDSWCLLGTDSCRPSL
Protocol: as §2

[14] = biological target: T9, YES (Homo sapiens, UniProt P07947); test: KinomeScan; type: binding; details: 1 μM
T9 construct: purchased DiscoverX (KINOMEscan)
T9 sequence (P07947 whole entry): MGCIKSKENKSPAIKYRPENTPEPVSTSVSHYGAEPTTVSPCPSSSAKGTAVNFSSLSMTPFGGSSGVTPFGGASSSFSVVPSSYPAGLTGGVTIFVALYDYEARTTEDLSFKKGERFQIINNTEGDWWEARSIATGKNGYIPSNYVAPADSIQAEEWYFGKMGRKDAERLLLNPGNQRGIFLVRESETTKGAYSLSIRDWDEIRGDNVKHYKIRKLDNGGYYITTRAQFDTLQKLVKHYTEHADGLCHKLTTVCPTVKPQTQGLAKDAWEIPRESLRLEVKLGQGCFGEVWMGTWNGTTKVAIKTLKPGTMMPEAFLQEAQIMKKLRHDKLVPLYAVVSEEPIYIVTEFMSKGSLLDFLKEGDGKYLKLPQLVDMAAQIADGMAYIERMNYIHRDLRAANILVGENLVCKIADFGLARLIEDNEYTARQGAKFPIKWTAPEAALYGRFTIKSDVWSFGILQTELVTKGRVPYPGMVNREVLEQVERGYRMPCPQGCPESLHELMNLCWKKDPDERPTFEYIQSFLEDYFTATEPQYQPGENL
Protocol: as §2

[15] = biological target: T10, NEK11 (Homo sapiens, UniProt Q8NG66); test: KinomeScan; type: binding; details: 1 μM
T10 construct: purchased DiscoverX (KINOMEscan)
T10 sequence (Q8NG66 whole entry): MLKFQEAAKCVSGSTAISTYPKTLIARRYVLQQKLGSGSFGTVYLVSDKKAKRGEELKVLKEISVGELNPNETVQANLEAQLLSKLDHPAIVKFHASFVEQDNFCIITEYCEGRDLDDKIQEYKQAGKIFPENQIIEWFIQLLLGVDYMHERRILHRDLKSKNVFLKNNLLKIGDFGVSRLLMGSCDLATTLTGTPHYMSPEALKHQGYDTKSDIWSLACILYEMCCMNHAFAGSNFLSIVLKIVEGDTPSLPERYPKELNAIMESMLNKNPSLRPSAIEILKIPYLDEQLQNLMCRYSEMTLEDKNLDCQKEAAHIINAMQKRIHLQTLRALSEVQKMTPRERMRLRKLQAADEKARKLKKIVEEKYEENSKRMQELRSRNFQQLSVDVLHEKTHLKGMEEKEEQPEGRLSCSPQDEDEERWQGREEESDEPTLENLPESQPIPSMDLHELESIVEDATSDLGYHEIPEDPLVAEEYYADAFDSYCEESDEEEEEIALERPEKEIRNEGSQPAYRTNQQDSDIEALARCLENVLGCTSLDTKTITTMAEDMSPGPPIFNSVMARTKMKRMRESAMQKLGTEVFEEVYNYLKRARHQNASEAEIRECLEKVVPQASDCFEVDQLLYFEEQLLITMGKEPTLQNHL
Protocol: as §2

[16] = biological target: T11, CAMKK1 (Homo sapiens, UniProt Q8N5S9); test: KinomeScan; type: binding; details: 1 μM
T11 construct: purchased DiscoverX (KINOMEscan)
T11 sequence (Q8N5S9 whole entry): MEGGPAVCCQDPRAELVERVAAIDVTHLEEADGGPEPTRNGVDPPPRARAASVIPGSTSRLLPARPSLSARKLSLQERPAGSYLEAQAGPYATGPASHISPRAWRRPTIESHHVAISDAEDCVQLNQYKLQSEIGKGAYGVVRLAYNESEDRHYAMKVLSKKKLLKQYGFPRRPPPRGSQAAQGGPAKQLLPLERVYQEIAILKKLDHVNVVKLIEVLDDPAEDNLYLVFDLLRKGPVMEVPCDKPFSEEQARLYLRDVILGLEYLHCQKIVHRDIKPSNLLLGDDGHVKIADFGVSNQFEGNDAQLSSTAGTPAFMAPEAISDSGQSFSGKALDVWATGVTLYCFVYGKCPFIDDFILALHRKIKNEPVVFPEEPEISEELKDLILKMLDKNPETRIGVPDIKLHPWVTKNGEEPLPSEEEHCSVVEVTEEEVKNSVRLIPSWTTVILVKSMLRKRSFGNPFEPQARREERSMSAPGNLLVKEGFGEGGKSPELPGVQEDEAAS
Protocol: as §2

[17] = biological target: DYRK1A (Homo sapiens, UniProt Q13627); test: Thr286-cyclin D1 phosphorylation in SH-SY5Y cells; type: cell-based; design: expressed in transfected cells; host or cells: SH-SY5Y neuroblastoma cells, doxycycline-inducible (gift from Dr. Walter Becker); details: 30 μM, 24 h
[18] = biological target: CLK1 (Homo sapiens, UniProt P49759); test: KinomeScan; type: binding; details: 1 μM
CLK1, sequence (P49759 whole entry): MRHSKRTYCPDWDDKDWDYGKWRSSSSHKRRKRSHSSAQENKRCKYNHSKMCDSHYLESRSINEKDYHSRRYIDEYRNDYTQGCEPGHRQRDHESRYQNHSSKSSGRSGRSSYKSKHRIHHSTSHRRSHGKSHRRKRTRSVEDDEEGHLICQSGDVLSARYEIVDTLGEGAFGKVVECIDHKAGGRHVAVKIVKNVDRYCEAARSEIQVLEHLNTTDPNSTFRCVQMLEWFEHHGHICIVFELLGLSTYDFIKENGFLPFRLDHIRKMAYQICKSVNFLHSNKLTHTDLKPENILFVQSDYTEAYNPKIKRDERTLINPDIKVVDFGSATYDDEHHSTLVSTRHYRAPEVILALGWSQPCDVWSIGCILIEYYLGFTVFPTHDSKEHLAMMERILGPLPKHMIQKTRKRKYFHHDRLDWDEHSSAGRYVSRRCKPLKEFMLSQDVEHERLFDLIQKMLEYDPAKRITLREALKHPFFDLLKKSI

[19] = 15 μmol/L ATP, read-out: IC50 DYRK3
[20] = 15 μmol/L ATP, read-out: IC50 LmCK1
[21] = 15 μmol/L ATP, read-out: IC50 DYRK2

SMILES | IC50 [1, 19] [nM] | IC50 [2, 20] [nM] | IC50 [3, 21] [nM] | IC50 [4] [nM] | IC50 [5] [nM] | IC50 [6] [nM] | activity in the kinase panel [7] | further results
NC1=NC(=O)/C(=C2\CCNC(=O)c3[nH]c(Br)cc32)N1 [Hymenialdisine, reference compound] | 4.9 | 2.5 | 3.1 | 4.1 | 3.7 | 5 |  | 
NC1=N/C(=C\CCNC(=O)c2cc(Br)c(Br)[nH]2)C(=O)N1 [Dispacamide] | > 10000 | > 10000 | > 10000 | > 10000 | > 10000 | > 10000 | essentially inactive | 
CN1C(=O)/C(=C/c2ccc3c(c2)OCO3)N=C1N [Leucettamine B] |  |  |  | 910 | > 10000 | > 10000 | modestly active | IC50 ([1]; IC50 DYRK3, 15 μmol/L ATP): 600 nM; IC50 [2]: > 10000 nM; IC50 ([3]; IC50 DYRK2, 15 μmol/L ATP): 490 nM
NC1=NC(=O)/C(=C2\CCNC(=O)c3[nH]cc(Br)c32)N1 [Spongiacidin B] | 44 | 25 | 21 | 7.3 | 31 | 31 |  | 
COc1cc(/C=C2\N=C(N)NC2=O)ccc1O [Polyandrocarpamine A] | 170 | > 10000 | 420 | 1200 | 3300 |  |  | Score [8]: 98; Score [9]: 100; Score [10]: 100; Score [11]: 100; Score [12]: 100; Score [13]: 100; Score [14]: 100; Score [15]: 100; Score [16]: 100; Phosphorylation of cyclin D1 at Thr286 [17]: partially inhibited; Score [18]: 32

The next lines start with results.

IC50 [1, 19] [nM] | IC50 [2, 20] [nM] | IC50 [3, 21] [nM] | IC50 [4] [nM] | IC50 [5] [nM] | IC50 [6] [nM] | activity in the kinase panel [7] | SMILES | further results
> 10000 | > 10000 | 7100 | 6000 | > 10000 | > 10000 | essentially inactive | CN1C(=O)N=C(Nc2nc(Cc3ccc4c(c3)OCO4)cn2C)C1=O [Clathridine] | 
6100 | > 10000 | 6200 | 6100 | > 10000 | > 10000 | essentially inactive | CN1C(=N)N=C(Nc2nc(Cc3ccc4c(c3)OCO4)cn2C)C1=O [Clathridimine] | 
880 | > 10000 | 760 | 4900 | > 10000 | > 10000 |  | NC1=N/C(=C\c2ccc(O)c(O)c2)C(=O)N1 [Polyandrocarpamine B] | 
> 10000 | > 10000 | > 10000 | > 10000 | > 10000 | > 10000 | essentially inactive | CN1C(=N)N(C)/C(=C\c2c[nH]c3ccccc23)C1=O [Aplysinopsine] | 
